Data reported in PMC6957263 (Bioorganic & medicinal chemistry letters, 2013).

Assays:
[1] = biological target: T1, human TRPV1 heterologously expressed in CHO cells (Homo sapiens, UniProt Q8NER1); experiment: binding competition assay with [3H]RTX; details: for fold less potent than the racemate in binding affinity: 2S vs 2, 3S vs 3; for fold greater potency than the racemate in binding affinity: 2R vs 2, 3R vs 3
[2] = biological target: T1, human TRPV1 heterologously expressed in CHO cells; experiment: functional 45Ca2+ uptake assay; type: cell-based
[3] = human TRPV1, within ca. x-fold of RTX

T1 sequence (Q8NER1 whole entry): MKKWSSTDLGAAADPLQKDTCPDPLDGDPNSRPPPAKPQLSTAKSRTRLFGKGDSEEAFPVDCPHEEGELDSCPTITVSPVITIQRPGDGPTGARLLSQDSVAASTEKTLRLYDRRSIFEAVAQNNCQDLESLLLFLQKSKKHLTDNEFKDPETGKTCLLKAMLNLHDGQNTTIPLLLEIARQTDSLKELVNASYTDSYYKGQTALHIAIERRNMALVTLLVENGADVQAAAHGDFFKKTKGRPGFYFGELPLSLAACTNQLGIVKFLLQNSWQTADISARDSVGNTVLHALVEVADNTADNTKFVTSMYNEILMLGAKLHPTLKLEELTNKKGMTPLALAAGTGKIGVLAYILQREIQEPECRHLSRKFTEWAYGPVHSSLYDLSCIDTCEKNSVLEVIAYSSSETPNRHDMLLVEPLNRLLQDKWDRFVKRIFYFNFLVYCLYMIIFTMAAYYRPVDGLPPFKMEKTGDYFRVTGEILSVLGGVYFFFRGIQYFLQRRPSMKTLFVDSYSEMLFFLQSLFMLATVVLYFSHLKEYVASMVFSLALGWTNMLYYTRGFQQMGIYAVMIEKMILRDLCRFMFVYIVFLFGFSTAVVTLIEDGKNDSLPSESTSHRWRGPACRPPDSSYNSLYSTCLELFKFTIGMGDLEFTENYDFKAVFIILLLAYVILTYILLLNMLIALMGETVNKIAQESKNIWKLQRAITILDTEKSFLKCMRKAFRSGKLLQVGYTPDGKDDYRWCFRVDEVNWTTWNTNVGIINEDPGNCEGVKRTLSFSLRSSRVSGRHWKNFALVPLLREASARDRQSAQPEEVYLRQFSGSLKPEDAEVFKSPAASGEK

COc1cc(CNC(=S)NC[C@@H](COC(=O)C(C)(C)C)Cc2ccc(C(C)(C)C)cc2)ccc1O [Compound 2S]
fold less potent than the racemate in binding affinity ([1]; hTRPV1): 1.1 fold
fold less potent than 2 in agonism ([2]; hTRPV1): 7 fold

COc1cc(CNC(=S)NCC(COC(=O)C(C)(C)C)Cc2ccc(C(C)(C)C)cc2)ccc1O (stereo not drawn) [Compound 2]
fold of the potency of RTX in binding affinity [1, 3]: ca. 5 fold
fold of the potency of RTX in agonism [2, 3]: ~1.5 fold

CC(C)(C)C(=O)OC[C@@H](CNC(=S)NCc1ccc(NS(C)(=O)=O)c(F)c1)Cc1ccc(C(C)(C)C)cc1 [Compound 3R]
fold greater potency than the racemate in binding affinity ([1]; hTRPV1): 1.3 fold
fold greater potency than 3 in antagonism ([2]; hTRPV1): 1.3 fold

CC(C)(C)C(=O)OCC(CNC(=S)NCc1ccc(NS(C)(=O)=O)c(F)c1)Cc1ccc(C(C)(C)C)cc1 (stereo not drawn) [Compound 3]
fold less potent than I-RTX in binding affinity ([1]; hTRPV1): ca. 2 fold
fold less potent than I-RTX in antagonism ([2]; hTRPV1): ~20 fold

COc1cc(CNC(=S)NC[C@H](COC(=O)C(C)(C)C)Cc2ccc(C(C)(C)C)cc2)ccc1O [Compound 2R]
fold greater potency than the racemate in binding affinity ([1]; hTRPV1): 2 fold
fold greater potency than the racemate 2 in agonism ([2]; hTRPV1): 1.5 fold

CC(C)(C)C(=O)OC[C@H](CNC(=S)NCc1ccc(NS(C)(=O)=O)c(F)c1)Cc1ccc(C(C)(C)C)cc1 [Compound 3S]
fold less potent than the racemate in binding affinity ([1]; hTRPV1): 3 fold
fold less potency compared to 3 in antagonism ([2]; hTRPV1): 1.3 fold
